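Interpolation was linear, between the two tested concentrations surrounding the appropriate level; five concentrations were tested over 48 hours in 96-well plates. GI50 = concentration required for 50% inhibition of growth. TGI is the concentration that stops growth completely.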
What was measured:
Assay in all cases: growth of human tumour cells (NCI), 48 h
CAKI-1 renal = test system: CAKI-1 renal
IGROV1 ovarian = test system: IGROV1 ovarian
MDA-MB-231 breast = test system: MDA-MB-231 breast
SF-539 CNS = test system: SF-539 CNS
SK-MEL-2 melanoma = test system: SK-MEL-2 melanoma
SK-MEL-28 melanoma = test system: SK-MEL-28 melanoma
SK-OV-3 ovarian = test system: SK-OV-3 ovarian
SW-620 colon = test system: SW-620 colon
UACC-257 melanoma = test system: UACC-257 melanoma
K-562 leukemia = test system: K-562 leukemia

| Structure (SMILES) | GI50 (CAKI-1 renal) [µM] | TGI (CAKI-1 renal) [µM] | GI50 (IGROV1 ovarian) [µM] | TGI (IGROV1 ovarian) [µM] | GI50 (MDA-MB-231 breast) [µM] | TGI (MDA-MB-231 breast) [µM] | GI50 (SF-539 CNS) [µM] | TGI (SF-539 CNS) [µM] | GI50 (SK-MEL-2 melanoma) [µM] | TGI (SK-MEL-2 melanoma) [µM] | GI50 (SK-MEL-28 melanoma) [µM] | TGI (SK-MEL-28 melanoma) [µM] | GI50 (SK-OV-3 ovarian) [µM] | TGI (SK-OV-3 ovarian) [µM] | GI50 (SW-620 colon) [µM] | TGI (SW-620 colon) [µM] | GI50 (UACC-257 melanoma) [µM] | TGI (UACC-257 melanoma) [µM] | GI50 (K-562 leukemia) [µM] | TGI (K-562 leukemia) [µM] |
| --- | --- | --- | --- | --- | --- | --- | --- | --- | --- | --- | --- | --- | --- | --- | --- | --- | --- | --- | --- | --- |
| Cc1nn(-c2ccc(Cl)cc2)c2nc3c(nc12)C(=O)C(=O)c1ccccc1-3 | 7.93 | > 100 | 5.46 | 47.3 | 4.31 | 66.3 | 3.14 | 9.3 | 4.71 | 16.2 | 7.76 | 74.8 | > 100 | > 100 | 3.25 | 20.9 | 3.24 | 11.9 | – | – |
| Cn1cc(-c2csc(-c3cn(CCCN4CCCCC4)c4ccccc34)n2)c2cccnc21 | – | – | 1.61 | 3.35 | 1.77 | 3.32 | 1.62 | 3.08 | 18.8 | 38.5 | 1.7 | 3.19 | 19.3 | 42.7 | 1.95 | 3.74 | 1.96 | 3.65 | – | – |
| C[CH2][Sn]([CH2]C)([O]C(=O)c1ccccc1F)[O][Sn]([CH2]C)([CH2]C)[O]C(=O)c1ccccc1F | 14.2 | 27.7 | > 87.8 | > 100 | – | – | 20.5 | 46.9 | 19.1 | 38.6 | 18.7 | 33.4 | > 50.5 | > 90.3 | 20.3 | 36.5 | 18.4 | 35.4 | 13.5 | 36.6 |
| COc1ccc(CC2(Cc3ccc(OC)cc3)CCOC2=O)cc1 | – | > 100 | – | > 100 | – | – | – | – | – | > 100 | – | > 100 | – | > 100 | – | > 100 | – | > 100 | – | > 100 |
| CCc1cccc(C)c1NC(=O)C1=C(C)NC(C)=C(C(=O)Nc2c(C)cccc2CC)C1c1ccc2c(c1)OCO2 | – | 39.4 | – | 78.6 | – | – | – | 38.6 | – | 29.6 | – | 32.7 | – | 92.5 | – | 55.9 | – | 46.3 | – | 92.3 |
| CC(C)CCNCC(O)Cn1c2ccccc2c2ccccc21 (stereo not given) | 14.3 | 29.8 | 14 | 32.1 | 3.51 | 14.4 | 15.8 | 30.2 | – | – | 4.42 | 16.1 | 17.2 | 31.2 | 10.4 | 24 | 5 | 17.2 | 3.69 | 13.2 |
| NCCN.O=C([O-])CN1CCOCC1.[OH-].[Pt+4] | > 100 | > 100 | > 100 | > 100 | > 100 | > 100 | > 100 | > 100 | > 100 | > 100 | > 100 | > 100 | > 100 | > 100 | > 100 | > 100 | > 100 | > 100 | – | – |
| COc1ccc(N(/C=C/C(=O)C(F)(F)F)CC(=O)c2ccc(F)cc2)cc1 | 21.7 | 72.1 | 13 | 30.7 | 16.1 | 48.4 | 21.4 | 52 | 31.6 | 67.2 | 41.1 | > 100 | 42.9 | > 100 | 35 | > 100 | 23.7 | 64.8 | – | – |
| COc1cc2c(cc1OC)[C@@H](Nc1ccc(F)cc1)C1COC(=O)[C@@H]1C2c1cc(OC)c(O)c(OC)c1 (stereo not given in full) | – | 3.76 | – | > 100 | – | – | – | 4.26 | – | > 60.9 | – | > 100 | – | 7 | – | > 38.5 | – | > 79.6 | – | 11.8 |
| O=C(NC(=Nc1ccccc1)SCCSC(=Nc1ccccc1)NC(=O)c1cccs1)c1cccs1 | – | > 100 | – | > 100 | – | – | – | > 100 | – | > 100 | – | > 100 | – | – | – | > 100 | – | > 100 | – | > 100 |
| Cc1[nH]c(=O)nc(Nc2ccc(Cl)cc2)c1C(=O)N1CCN(CCO)CC1 | > 100 | > 100 | > 100 | > 100 | 46.3 | > 100 | 75.9 | > 100 | – | – | > 100 | > 100 | 29.8 | 83.1 | > 100 | > 100 | > 100 | > 100 | > 100 | > 100 |
| Cc1ccc(-c2csc(NC(=O)N3CCN(c4cc5c(cc4F)c(=O)c(C(=O)O)cn5C4CC4)CC3)n2)cc1 | – | – | 0.482 | > 100 | 1.78 | 19.4 | 0.418 | > 100 | 1.37 | 4.36 | 0.494 | > 100 | 1.35 | 6.12 | 1.9 | > 100 | 2 | 6.58 | 0.881 | > 100 |
| C[C@]12CCC(=O)CC1CCCC2=O (stereo not given in full) | – | > 100 | – | > 100 | – | – | – | > 100 | – | > 100 | – | > 100 | – | > 100 | – | > 100 | – | > 100 | – | > 100 |
| CCN(CC)c1oc(N(CC)CC)c(C(=O)Nc2ccccn2)c(=O)c1C(C)=O | – | > 100 | – | > 100 | – | – | – | > 100 | – | > 100 | – | > 100 | – | > 100 | – | > 100 | – | – | – | > 100 |
| CCOC(=O)C1CCCCN1C(=O)c1ccc(Nc2cnc3cc(C(F)(F)F)ccc3n2)cc1 (stereo not given) | 18 | 33.9 | 19.3 | 40.8 | 2.86 | 5.66 | 15.8 | 37.1 | 23.2 | 67.3 | – | – | – | – | 17.8 | 38.5 | 15.7 | 29.8 | 15.1 | > 100 |
| [O-]c1ccccc1/C=N/C(/N=C/c1ccccc1[O-])c1ccccc1O.[O-]c1ccccc1/C=N/C(/N=C/c1ccccc1[O-])c1ccccc1O.[Zr+4] | – | – | 56.4 | > 100 | 58.2 | > 100 | 17.8 | > 100 | – | – | 17.1 | 78.2 | 23.1 | > 100 | 26.6 | > 100 | 33.4 | > 100 | 44.3 | > 100 |
